Test results from US20160002204A1 (Board of Regents, The University of Texas System, priority 2014, published 2016).
pEC50, pIC50: −log10 of the molar value.

Key:
[1] = target: T1, GLS1 (purified recombinant human GAC) (Homo sapiens, UniProt O94925); test: GLS1 enzymatic activity assay (dual-coupled, Amplex UltraRed/resorufin); type: biochemical
T1 sequence (O94925 55-598 isoform O94925-3 limits assumed): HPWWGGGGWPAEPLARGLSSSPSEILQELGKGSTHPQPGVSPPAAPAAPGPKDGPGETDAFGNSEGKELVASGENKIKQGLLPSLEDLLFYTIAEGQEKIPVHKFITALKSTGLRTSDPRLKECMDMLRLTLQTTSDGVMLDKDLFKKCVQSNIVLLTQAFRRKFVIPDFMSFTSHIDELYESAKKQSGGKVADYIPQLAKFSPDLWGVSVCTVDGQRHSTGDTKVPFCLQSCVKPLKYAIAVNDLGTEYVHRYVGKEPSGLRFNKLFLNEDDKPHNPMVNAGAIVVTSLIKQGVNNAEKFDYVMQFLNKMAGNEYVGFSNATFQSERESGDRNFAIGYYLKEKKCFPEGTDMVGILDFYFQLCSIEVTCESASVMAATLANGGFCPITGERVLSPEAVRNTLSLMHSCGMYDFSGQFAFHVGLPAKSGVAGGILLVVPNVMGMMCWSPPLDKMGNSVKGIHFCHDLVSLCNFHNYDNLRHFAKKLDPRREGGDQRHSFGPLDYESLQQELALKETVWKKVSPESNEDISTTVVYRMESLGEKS
How it was run: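 GAC activity measured by coupling glutamate to glutamate oxidase and HRP, generating resorufin from Amplex UltraRed. Enzyme (2 nM) preincubated with 50 mM potassium phosphate 10 min at room temperature, then inhibitor 10 min; 1 mM glutamine substrate, 1% DMSO. Fluorescence 530/590 nm, kinetic or 20-min endpoint; IC50 from four-parameter logistic fit.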

[2] = system: A549 cells; test: A549 proliferation (viability) assay, Cell Titer Fluor, 72 hours; type: cell-based; settings: Homo sapiens
How it was run: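 1000 A549 cells/well, RPMI 1640/10% dialyzed FBS, 24 h attach; compound 72 h, 0.5% DMSO, 37 °C/5% CO2; Cell Titer Fluor fluorescence; EC50 via 4-parameter logistic.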

| SMILES | pIC50 [1] | pEC50 [2] |
| --- | --- | --- |
| O=C(Nc1ccn(CCC(F)Cn2cc(C(=O)NCc3cccc(C(F)(F)F)n3)nn2)c(=O)c1F)OC1CCC1 (stereo not drawn) [Example 397, cyclobutyl N-(3-fluoro-1-{3-fluoro-4-[4-({[6-(trifluoromethyl)pyridin-2-yl]methyl}carbamoyl)-1H-1,2,3-triazol-1-yl]butyl}-2-oxo-1,2-dihydropyridin-4-yl)carbamate] | 6.30 to 7.00 | 6.30 to 7.00 |
| O=C(Nc1ccn(CCC(F)Cn2cc(C(=O)NCc3cncc(C(F)(F)F)c3)nn2)c(=O)c1F)OC1CCC1 (stereo not drawn) [Example 398, cyclobutyl N-(3-fluoro-1-{3-fluoro-4-[4-({[5-(trifluoromethyl)pyridin-3-yl]methyl}carbamoyl)-1H-1,2,3-triazol-1-yl]butyl}-2-oxo-1,2-dihydropyridin-4-yl)carbamate] | > 7.00 | > 7.00 |
| O=C(CC1CCCC1)Nc1ccn(CCC(F)Cn2cc(C(=O)NCc3ccc(OC(F)(F)F)cn3)nn2)c(=O)c1F (stereo not drawn) [Example 400, 1-{4-[4-(2-cyclopentylacetamido)-3-fluoro-2-oxo-1,2-dihydropyridin-1-yl]-2-fluorobutyl}-N-{[5-(trifluoromethoxy)pyridin-2-yl]methyl}-1H-1,2,3-triazole-4-carboxamide] | > 7.00 | > 7.00 |
| CNC(=O)c1cn(CC(F)CCn2ccc(NC(=O)CN3CCN(C(=O)OC(C)(C)C)CC3)cc2=O)nn1 (stereo not drawn) [Example 403, tert-butyl 4-{[(1-{3-fluoro-4-[4-(methylcarbamoyl)-1H-1,2,3-triazol-1-yl]butyl}-2-oxo-1,2-dihydropyridin-4-yl)carbamoyl]methyl}piperazine-1-carboxylate] | 6.30 to 7.00 | 5.30 to 6.30 |
| CC(C)CNC(=O)c1cn(CC(F)CCn2ccc(NC(=O)CN3CCN(C(=O)OC(C)(C)C)CC3)cc2=O)nn1 (stereo not drawn) [Example 404, tert-butyl 4-({[1-(3-fluoro-4-{4-[(2-methylpropyl)carbamoyl]-lH-1,2,3-triazol-1-yl}butyl)-2-oxo-1,2-dihydropyridin-4-yl]carbamoyl}methyl)piperazine-1-carboxylate] | 6.30 to 7.00 | 5.30 to 6.30 |
| CC(C)(CO)CNC(=O)c1cn(CC(F)CCn2ccc(NC(=O)CN3CCN(C(=O)OC(C)(C)C)CC3)cc2=O)nn1 (stereo not drawn) [Example 406, tert-butyl 4-({[1-(3-fluoro-4-{4-[(3-hydroxy-2,2-dimethylpropyl)carbamoyl]-1H-1,2,3-triazol-1-yl}butyl)-2-oxo-1,2-dihydropyridin-4-yl]carbamoyl}methyl)piperazine-1-carboxylate] | 5.30 to 6.30 | < 5.30 |
| CC(C)(C)OC(=O)N1CCN(CC(=O)Nc2ccn(CCC(F)Cn3cc(C(N)=O)nn3)c(=O)c2)CC1 (stereo not drawn) [Example 407, tert-butyl 4-[({1-[4-(4-carbamoyl-1H-1,2,3-triazol-1-yl)-3-fluorobutyl]-2-oxo-1,2-dihydropyridin-4-yl}carbamoyl)methyl]piperazine-1-carboxylate] | 5.30 to 6.30 | < 5.30 |
| O=C(Cc1ccccc1)Nc1ccn(CCC(F)Cn2cc(C(=O)NCc3ccc(OC(F)(F)F)cn3)nn2)c(=O)c1F (stereo not drawn) [Example 409, 1-{2-fluoro-4-[3-fluoro-2-oxo-4-(2-phenylacetamido)-1,2-dihydropyridin-1-yl]butyl}-N-{[5-(trifluoromethoxy)pyridin-2-yl]methyl}-1H-1,2,3-triazole-4-carboxamide] | > 7.00 | > 7.00 |
| O=C(Nc1ccn(CCC(F)Cn2cc(C(=O)NCc3cc(C(F)(F)F)ccn3)nn2)c(=O)n1)OC1CCC1 (stereo not drawn) [Example 410, cyclobutyl N-(1-{3-fluoro-4-[4-({[4-(trifluoromethyl)pyridin-2-yl]methyl}carbamoyl)-1H-1,2,3-triazol-1-yl]butyl}-2-oxo-1,2-dihydropyrimidin-4-yl)carbamate] | 6.30 to 7.00 | 5.30 to 6.30 |
| Cc1ccc(CNC(=O)c2cn(CC(F)CCn3ccc(NC(=O)C(=O)N4CCCC4)c(F)c3=O)nn2)cn1 (stereo not drawn) [Example 411, 1-(2-fluoro-4-{3-fluoro-2-oxo-4-[2-oxo-2-(pyrrolidin-1-yl)acetamido]-1,2-dihydropyridin-1-yl}butyl)-N-[(6-methylpyridin-3-yl)methyl]-1H-1,2,3-triazole-4-carboxamide] | 5.30 to 6.30 | 5.30 to 6.30 |
| O=C(NCc1cccc(OC(F)(F)F)c1)c1cn(CC(F)CCn2ccc(COc3ccccc3)cc2=O)nn1 (stereo not drawn) [Example 414, 1-(2-fluoro-4-(2-oxo-4-(phenoxymethyl)pyridin-1(2H)-yl)butyl)-N-(3-(trifluoromethoxy)benzyl)-1H-1,2,3-triazole-4-carboxamide] | > 7.00 | 5.30 to 6.30 |

More lines, now with the values ahead:

| pIC50 [1] | pEC50 [2] | SMILES |
| --- | --- | --- |
| 6.30 to 7.00 | 6.30 to 7.00 | O=C(Nc1ccn(CCC(F)Cn2cc(C(=O)NCc3ccc(C(F)(F)F)nc3)nn2)c(=O)c1F)OC1CCC1 (stereo not drawn) [Example 399, cyclobutyl N-(3-fluoro-1-{3-fluoro-4-[4-({[6-(trifluoromethyl)pyridin-3-yl]methyl}carbamoyl)-1H-1,2,3-triazol-1-yl]butyl}-2-oxo-1,2-dihydropyridin-4-yl)carbamate] |
| > 7.00 | 6.30 to 7.00 | O=C(CC1CCC1)Nc1cnn(CCC(F)Cn2cc(C(=O)NCc3cc(C(F)(F)F)ccn3)nn2)c(=O)c1 (stereo not drawn) [Example 401, 1-{4-[4-(2-cyclobutylacetamido)-6-oxo-1,6-dihydropyridazin-1-yl]-2-fluorobutyl}-N-{[4-(trifluoromethyl)pyridin-2-yl]methyl}-1H-1,2,3-triazole-4-carboxamide] |
| 6.30 to 7.00 | 5.30 to 6.30 | Cc1ccc(CNC(=O)c2cn(CC(F)CCn3ncc(NC(=O)CC4CCC4)cc3=O)nn2)cn1 (stereo not drawn) [Example 402, 1-{4-[4-(2-cyclobutylacetamido)-6-oxo-1,6-dihydropyridazin-1-yl]-2-fluorobutyl}-N-[(6-methylpyridin-3-yl)methyl]-1H-1,2,3-triazole-4-carboxamide] |
| 6.30 to 7.00 | 6.30 to 7.00 | CC(C)(C)OC(=O)N1CCN(CC(=O)Nc2ccn(CCC(F)Cn3cc(C(=O)NCC4CCCC4)nn3)c(=O)c2)CC1 (stereo not drawn) [Example 405, tert-butyl 4-({[1-(4-{4-[(cyclopentylmethyl)carbamoyl]-1H-1,2,3-triazol-1-yl}-3-fluorobutyl)-2-oxo-1,2-dihydropyridin-4-yl]carbamoyl}methyl)piperazine-1-carboxylate] |
| < 5.30 | < 5.30 | CC(C)(C)OC(=O)c1cn(CC(F)CCn2ccc(CO)cc2=O)nn1 (stereo not drawn) [Example 408, tert-butyl 1-{2-fluoro-4-[4-(hydroxymethyl)-2-oxo-1,2-dihydropyridin-1-yl]butyl}-1H-1,2,3-triazole-4-carboxylate] |
| 6.30 to 7.00 | 5.30 to 6.30 | Cc1ccc(CNC(=O)c2cn(CC(F)CCn3ccc(NC(=O)C(=O)N4CCCCC4)c(F)c3=O)nn2)cn1 (stereo not drawn) [Example 412, 1-(2-fluoro-4-{3-fluoro-2-oxo-4-[2-oxo-2-(piperidin-1-yl)acetamido]-1,2-dihydropyridin-1-yl}butyl)-N-[(6-methylpyridin-3-yl)methyl]-1H-1,2,3-triazole-4-carboxamide] |
| 6.30 to 7.00 | 5.30 to 6.30 | Cc1ccc(CNC(=O)c2cn(CC(F)CCn3ccc(NC(=O)OC4CCC4)nc3=O)nn2)cn1 (stereo not drawn) [Example 413, cyclobutyl N-{1-[3-fluoro-4-(4-{[(6-methylpyridin-3-yl)methyl]carbamoyl}-1H-1,2,3-triazol-1-yl)butyl]-2-oxo-1,2-dihydropyrimidin-4-yl}carbamate] |
